Laboratory results from article PMC6511062, “Preclinical candidate for the treatment of visceral leishmaniasis that acts through proteasome inhibition” (Proceedings of the National Academy of Sciences of the …, 2019).
Entries after “also recorded” stand apart in the source; their conditions may differ.

Key:
[1] = system: L. donovani proteasome β subunits; assay: Activity-based probe (UbiQ-018) labelling of L. donovani proteasome; format: binding, Leishmania donovani; settings: 100 µM
Description: m. Activity-Based Probe Labelling of THP1 and L. donovani proteasome
Proteasome enriched fractions from THP1 (20 µg), L. donovani (10 µg) and L. donovani […]
µM for 1 h. Proteasome enriched fractions were also incubated with DMSO as control.
For all proteasome labelling experiments, the active-site probe Me4BodipyFL-Ahx3Leu3VS (UbiQ-018) was used at final concentration of 500 nM in sucrose buffer (50 mM Tris buffer pH 7.5, 5 mM magnesium chloride, 1 mM EDTA, 50 mM NaCl, 250 mM sucrose, 2 mM ATP, 1 mM DTT). Proteasome enriched fractions treated with […]
DMSO or test compounds, were incubated with the probe for 2h at RT. Samples were then denatured by addition of Laemmli sample buffer, heated to 95°C for 10 min and separated by electrophoresis on a 15% SDS-PAGE acrylamide gel. Following separation, gels were scanned in the fluorescein channel of a ChemiDoc reader (λ excitation/emission = 480/530 nm). Fluorescent proteins were excised and MALDI– TOF analysis carried out by the FingerPrints Proteomics service at the University of […]
10. Measuring Proteolytic activity of Leishmania tarentolae Proteasome […]
pre-prepared as a 10 mM stocks in 100 % DMSO and then diluted 1 in 3, over 11 points, prior to dispense of 100 nl of each dilution series into black, low volume, 384-well microplates. Proteasome was prepared as a 0.5 µg/mL working solution in assay buffer (50 mM HEPES (pH 7.5), 150 mM NaCl, 5 mM MgCl2, 5% glycerol, 1 mM CHAPS) and 5 µL was added using a Multidrop Micro (Thermo Fisher Scientific) to all wells containing compound dilutions on the test microplates. The microplates were then centrifuged for 1 min at 1000 rpm and incubated for 15 mins at 25 °C, prior to an assay initiating addition of 5 µl of fluorogenic substrate, which had been prepared as a 1 µM […]
The assay microplates were then centrifuged for 10 secs before using a Tecan M1000 Pro to monitor the increase of fluorescent intensity at 25 °C by excitation of the liberated Rhodamine110 at 485 nm and emission at 535 nm every 125 secs for 20 cycles. […]
calculate initial rates of reactions for all assay wells on the microplate by fitting to a linear regression model. The initial rates of reaction for all compound concentrations tested were normalised to the initial rates determined for 16 replicate control wells per microplate of both uninhibited reaction and no-proteasome background, and subsequently, IC50 values were determined by fitting the normalised data to the following four-parameter logistic model; y = a + (( b – a) / ( 1 + ( 10 ^ x / 10 ^ c ) ^ d ), where ‘a’ is the minimum, ‘b’ is […], ‘c’ is the IC50 and ‘d’ is […].
11. Cryo-EM of 20S Leishmania tarentolae proteasome a. Purification of 20S Leishmania tarentolae proteasome. […]

[2] = system: L. donovani (LV9); assay: Mouse model of VL (in vivo efficacy in female Balb/C mice); parameters: species or system Leishmania donovani; settings: 50 mg/kg b.i.d. (10 days PO)
[3] = Pharmacokinetics in male Sprague Dawley rats; format: in vivo; settings: rat
Description: Male Sprague Dawley rats (n=3) were dosed either intravenously at a target dose of 3 mg/kg or orally at a target dose of 10, 30, 100 and 300 mg/kg. Following discrete intravenous tail vein dosing from a solution of 5% DMSO/20% kleptose in saline, serial blood samples (~10 µl) were taken via lateral tail vein at 0.01, 0.05, 0.08, 0.25, 0.5, 1, 2, 4, 6, 8 and 24 h post dose and 1/9 diluted with miliQ water, frozen on dry ice, then stored at approximately –20 °C or below until analysis.
Following discrete oral gavage dosing from a suspension of 1% methyl cellulose at target doses of 10, 30, 100 and 300 mg/kg, respectively, serial blood samples (10 µl) were taken via lateral tail vein at 0.08, 0.25, 0.5, 0.75, 1, 2, 4, 6, 8 and 24 h post dose and 1/9 diluted with miliQ water, frozen on dry ice, then stored at approximately –20°C […]
Samples were analyzed for parent compound using a method based on protein precipitation followed by UPLC-MS/MS.
Pharmacokinetic parameters, namely clearance (CL), volume of distribution at steady state (Vss) and bioavailability (F%), were estimated using Phoenix, WinNonLin 6.3.
Data analysis and calculation of pharmacokinetic parameters was performed using Phoenix, WinNonLin Version 6.3.
Following the intravenous administration, the whole blood clearance was calculated by determining the dose administered to each animal and dividing by the AUC0-∞ . The estimate of the volume of distribution at steady state (VSS) was calculated as MRT*CL, where MRT is the mean residence time, calculated by AUMC0-∞ /AUC0-∞.
For both intravenous and oral administration, the systemic exposures were determined by calculating the area under the blood concentration time curve (AUC) from the start of dosing to the last observed quantifiable concentration (AUC0-t) by using the linear up-log down trapezoidal rule. The slope of the terminal elimination phase was estimated by linear regression of the terminal data points (minimum 3 points) from a natural log concentration versus time plot of the data. The half-life (t1/2) of the terminal elimination phase was calculated as t1/2 = 0.693/λ. […]

[4] = male, Sprague Dawley, whole blood, 3 mg/kg iv bolus

O=C(Nc1ccc(F)c(-c2ccn3c(N4CCOCC4)cnc3n2)c1)N1CCCC1 [Compound 8]
UbiQ-018 labelling of proteasome subunits ([1]; L. donovani WT extracts): selectively blocks labeling of β5; also recorded: selectively blocked UbiQ-018 labeling of the β5 subunit
UbiQ-018 labelling of proteasome subunits ([1]; L. donovani-resistant RES II extracts): could not be abolished
Reduction in parasite burden (compared to the vehicle control group) [2]: 99.1%
bioavailability ([3]; male, Sprague Dawley, whole blood, po, 10 mg/kg, SD male rat, 10 mg/kg po, read-out: F (oral bioavailability)): 36%
clearance [3, 4]: 17 ± 5.2 mL/min/kg
half-life [3, 4]: 42 ± 8.4 min
Vd ([3]; male, Sprague Dawley, whole blood, 3 mg/kg iv bolus, read-out: Vss): 1 L/kg
blood clearance [3]: 17 mL/min per kilogram
Cl (%LBF) ([3]; 3 mg/kg iv): 22%
